Key:
[1] = Activity of FTase
[2] = Inhibition of FTase
[3] = Inhibition of GGTase 1
[4] = Activity of GGTase 1

SMILES | Km [1] | IC50 [2] | IC50 [3] | Km [4]
C=C/C(=C\COP(=O)(O)OP(=O)(O)O)CC/C=C(\C)CC/C=C(\C)CCC=C(C)C |  | 715 nM |  | 1.75 µM
C=C/C(=C\CC/C(C)=C/COP(=O)(O)OP(=O)(O)O)CC/C=C(\C)CCC=C(C)C |  | > 5000 nM | 1000 nM | 
C=CC/C(=C\CC/C(C)=C/COP(=O)(O)OP(=O)(O)O)CC/C=C(\C)CCC=C(C)C |  | > 5000 nM |  | 0.027 µM

More lines, now with the values ahead:

Km [1] | IC50 [2] | IC50 [3] | Km [4] | SMILES
0.156 µM |  |  |  | C=C/C(=C\COP(=O)(O)OP(=O)(O)O)CC/C=C(\C)CCC=C(C)C
 | 189 nM |  |  | C=CC/C(=C\COP(=O)(O)OP(=O)(O)O)CC/C=C(\C)CCC=C(C)C
 | 453 nM | 846 nM |  | C=CC/C(=C\COP(=O)(O)OP(=O)(O)O)CC/C=C(\C)CC/C=C(\C)CCC=C(C)C
